Measured values from BigSolDB 2.1.

COC(=O)[C@H](N)c1ccccc1.Cl
solubility (mole fraction)
Conditions | in acetone | in ethanol | in ethyl acetate | in methanol | in toluene | in water
283.15 K | 1.3e-05 | 0.015 | 3.9e-05 | 0.076 | 9e-06 | 0.045
293.15 K | 3.6e-05 | 0.022 | 8.5e-05 | 0.081 | 1.5e-05 | 0.058
303.15 K | 7.8e-05 | 0.028 | 0.00015 | 0.085 | 2.3e-05 | 0.068
313.15 K | 0.00013 | 0.033 | 0.00021 | 0.09 | 3.3e-05 | 0.077
323.15 K | 0.00018 | 0.037 | 0.00025 | 0.096 | 4.4e-05 | 0.086
333.15 K | 0.00025 | 0.042 | 0.00029 | 0.1 | 5.6e-05 | 0.095
